The record followed here is patent publication US20080026486A1, “Assay Methods, Materials and Preparations” (priority 2004, published 2008).

Experiment [1] has as its system mouse anti-biotin IgG. The experiment can be described thus: Detection of proteins by SPR: biotinylated BSA on Dextran T70-COOH-PDEA (428018) surfaces. The format is binding. As to conditions: 10 μg/ml. Here is the method:
4 flow cells having polymer treated surfaces were prepared. Flow cells (FC) 1, 2 & 3—were all activated by exposure for 7 min to […] (200 mM/50 mM). FC 3 only was then treated for 7 min with 50 μg/ml mouse anti-biotin IgG in 10 mM NaOAc buffer pH 4.5. FC 2 only was coupled to 50 μg/ml an irrelevant mouse monoclonal IgG in 10 mM NaOAc buffer pH 4.5 (7 minute exposure). FC 1, 2, 3—were capped by treatment for 5 min with ethanolamine (1 M, pH 8.5). FC 4 comprised untreated polymer.
Dextran T70-COOH-PDEA (428018) was deposited and mouse anti-biotin IgG was immobilised using the same procedure as in Example 7. The measurement of the immobilisation is shown in FIG. 12, which again is a graph of response (RU) against time (seconds).
For orientation: Surface plasmon resonance follows binding to a sensor surface in real time, without labels.

Experiment [2] deals with carbonic anhydrase II (CAII). As to the kind of experiment: Detection of small molecules by QCRS on CAII surface. As to conditions: for frequency shift on CAII surface: 12.5 μM. In kind it is binding. How it is done:
The CAII surface was then used to capture 4-carboxybenzenesulfonamide (CBS […] in running PBSS buffer+0.25% MeOH).
The same CAII surface was used to detect 12.5 μM 4-carboxybenzenesulfonamide, and 12.5 μM 5-(dimethylamino)-1-naphthalenesulfonamide.

In the case of “biotinylated BSA: biotinylated bovine serum albumin used as analyte”, the “binding to anti-biotin IgG surface (FC3)” value in experiment [1] (FC3) is on record as “Specific binding occurs”. Further, the “binding to control surfaces (FC1, 2 and 4)” value in experiment [1] (capped polymer, irrelevant mouse IgG, unactivated polymer) is on record as “minimal non-specific binding”.
In the case of `NS(=O)(=O)c1ccc(C(=O)O)cc1` [4-carboxybenzenesulfonamide], the “frequency shift on CAII surface” value in experiment [2] stood at 2.5 Hz. Also, the “frequency shift on capture by CAII surface” value in experiment [2] (25 μm in running PBSS buffer + […] MeOH) stood at 6 Hz.
Consider `CN(C)c1cccc2c(S(N)(=O)=O)cccc12` [5-(dimethylamino)-1-naphthalenesulfonamide], for which, in experiment [2], the “frequency shift on CAII surface” value was determined as 1.2 Hz.
